Results taken from patent US7189746B2, “Methods for promoting wound healing” (GliaMed, Inc., priority 2002, dated 2007).
“Also recorded” adds a separate entry of the source.

Assays:
recombinant FKBP52 = target: T1, recombinant FKBP52 (Homo sapiens, UniProt Q02790); experiment: Binding affinity for recombinant FKBP52 by solution-phase tryptophan fluorescence (QTFS); details: read-out: disassociation constant (kd), binding affinity for recombinant FKBP52
T1 sequence (Q02790 1-459): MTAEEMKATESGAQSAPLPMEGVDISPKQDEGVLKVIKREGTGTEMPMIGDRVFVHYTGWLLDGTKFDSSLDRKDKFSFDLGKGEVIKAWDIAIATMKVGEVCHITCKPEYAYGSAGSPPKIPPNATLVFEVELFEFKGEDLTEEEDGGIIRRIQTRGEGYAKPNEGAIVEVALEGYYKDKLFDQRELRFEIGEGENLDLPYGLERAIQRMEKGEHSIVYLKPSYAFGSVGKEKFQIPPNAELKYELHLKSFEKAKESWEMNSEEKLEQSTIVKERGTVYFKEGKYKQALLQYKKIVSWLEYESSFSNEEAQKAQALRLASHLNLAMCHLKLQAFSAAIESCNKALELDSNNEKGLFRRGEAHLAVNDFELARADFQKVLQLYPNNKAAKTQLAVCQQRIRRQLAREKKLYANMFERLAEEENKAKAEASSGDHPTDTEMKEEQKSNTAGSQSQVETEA
Text: Accordingly, in one embodiment of the present invention, the immunophilin ligand is FK506 or an FK506 analogue or derivative. As used herein, an “FK506 derivative” is a chemical substance derived from FK506, either directly or by modification, truncation, or partial substitution. FK506 and its analogues and derivatives may be produced synthetically. The FK506 derivative for use in the present invention may be nonimmunosuppressive. In a preferred embodiment of the present invention, the nonimmunosuppressive FK506 derivative is GM-284. This novel compound is a small molecule that effects transcriptional change in Schwann cells, and promotes wound healing and regeneration of epithelial tissue and nervous tissue, as described below. […] The structure of GM-284 is depicted in FIG. 9.

surgical wounds = experiment: Healing of surgical wounds under daily gavage (systemic treatment); assay type: in vivo, mice
Text: During these studies, the inventor serendipitously observed that the surgical wounds of animals treated systemically with GM-284 appeared dramatically different from those of either vehicle- or FK506-treated mice. […] Given the biochemical properties of GM-284, and the clinical uses of FK506 as a topical medication, the inventor investigated the ability of GM-284 to act as a healing accelerant when applied topically to full-thickness skin biopsies in mice.
These studies required surgical exposure of the right lower quadrant of all study animals. Following exposure of the sciatic nerve from the sciatic notch to the knee, and manipulation of the nerve, the muscle and overlaying skin were closed with suture material. Each animal was subsequently treated with a daily gavage of either GM-284 (5 mg/kg), FK506 (5 mg/kg), or methylcellulose vehicle alone.

5-mm skin biopsies = experiment: Closure of 5-mm skin biopsy wounds under daily topical treatment; assay type: in vivo, mice
Procedure: The foregoing results also raised the possibility that GM-284 might show similar effects if administered topically, directly to the surgical site. To investigate this possibility, 10 retired breeders—5 male mice and 5 female mice—were prepared for surgery, and were subjected to 5-mm skin biopsies using a disposable biopsy punch. After achieving hemostasis, the wounds were treated immediately with topical application of either GM-284 or vehicle, or received no treatment at all. The treatment was repeated daily.
During the experimental period, the wounds were photographed daily, and the photographs were scanned for […]. The open area of each wound was quantified using an image-analysis program, NIH Image.

[1] = system: human-foreskin keratinocytes; experiment: Proliferation of cultured human-foreskin keratinocytes; assay type: cell-based
Procedure: Human keratinocytes were thawed, then either grown in the presence of increasing concentrations of GM-284, or grown in 5 μM FeSO4 as a positive control.
As detailed above, keratinocyte proliferation is influenced by a number of factors, including innervation (Hsieh and Lin, Modulation of keratinocyte proliferation by skin innervation. J. Invest. Dermatol., 113:579–86, 1999) and growth-factor treatment (Castagnino et al., Neu differentiation factor/heregulin induction by hepatocyte and keratinocyte growth factors. Oncogene, 19:640–48, 2000; and reviewed by Werner and Smola, Paracrine regulation of keratinocyte proliferation and differentiation. Trends Cell Biol., 11: 143–46, 2001). Thus, by culturing human-foreskin keratinocytes with increasing concentrations of GM-284, the inventor investigated the possibility that GM-284 was able to influence keratinocyte growth. […] This type of drug-dependent inhibition is consistent with the inventor's previous observation that a higher concentration of GM-284 blocks gene expression that is induced at a lower drug concentration (data not shown).

epidermis = experiment: Epidermal thickness after full-thickness skin biopsy and topical treatment; assay type: in vivo, mice; details: topical daily for 8 days in DMSO-based vehicle, rebiopsy, H&E
Procedure: FIG. 4 illustrates that topical treatment with GM-284 increases epidermal thickness in vivo. Eight days after full-thickness skin biopsies and daily treatment with vehicle, FK506, or GM-284, the original biopsy sites were rebiopsied and stained with hemotoxylin and eosin.
To examine this possibility, 5-mm, full-skin thickness biopsies were taken from the hindquarters of both male and female ICR retired breeders. The wounds were treated daily, for 8 days, with topical administration of either the DMSO-based vehicle, or FK506 or GM-284 in the vehicle. Thereafter, the original biopsy site was rebiopsied. […] In contrast, the epidermis of the GM-284-treated animals was much thicker, and appeared to be much more cellular, than the epidermis of animals under the other two conditions (FIG. 4, panel c).

[2] = system: hair follicles and sebaceous glands; experiment: Histology of adenexal structures and sebaceous cell volume after skin biopsy and topical treatment; assay type: in vivo, mice; details: topical daily, 8 days
Procedure: (A) Eight days following full-thickness skin biopsies and daily treatment with either vehicle or a 1 μM solution of GM-284, the original biopsy sites were rebiopsied and stained with hemotoxylin and eosin. […] Micrographs from the two treatment groups were scanned, and the volume of sebaceous cells was measured in voxels (n=>300 cells per treatment group). The resulting data were binned by 3000-voxel increments.
Using the topical-application-following-skin-biopsy paradigm detailed above, the lateral aspects of the original lesions were rebiopsied 8 days after the original lesions. The tissues were immersion-fixed, dehydrated through step gradients of alcohols, stained with hemotoxylin and eosin, and mounted for microscopic analysis, all following standard protocols. It is known that skin wounds in rodents heal inwards, from the perimeter, converging at a central point (Cohen, Stress and wound healing. Acta Anat. (Basel), 103:134–41, 1979). Therefore, the lateral edges of the original lesions were selected for analysis because these areas of tissue had the greatest opportunity to regenerate under the experimental conditions.
The volumes of the cells of the sebaceous glands were determined by scanning micrographs taken from animals treated with either GM-284 or vehicle for 8 days, and measuring cell size with the NIH Image program. […] There was an absence of smaller sebaceous cells in the GM-284 treatment group, and an absence of larger cells in the vehicle-treated group. […] Thus, given the cellular expansion in all three of these dermal compartments, it is likely that GM-284 acts at the level of the common stem cell.

[3] = system: nerve fibers of injured skin; experiment: Reinnervation and remyelination of healing skin (MBP and neuron-specific β-tubulin staining); assay type: in vivo, mouse; details: 8 days of treatment after biopsy
Text: FIG. 6 illustrates that GM-284 induces rapid reinnervation of injured skin. (A) The inventor examined innervation of surgically damaged skin (biopsy) following 8 days of treatment with either GM-284 or vehicle. The skin sections were stained with an antibody that recognizes myelin basic protein (MBP). […] In contrast, healing skin which had been treated with vehicle alone still had no myelinated fibers, nor did the Langerhans cells appear to have any organization relative to the epidermis (right panel). (B) Unmyelinated fibers also innervate the skin, where the fibers extend into the epidermis. […] No such fibers were found in the vehicle-treated controls.
As shown above, GM-284 induces rapid healing of wounds; it does so, in part, by influencing the proliferation of cells within the dermis and epidermis. In addition, this compound has profound effects on the regeneration of peripheral nerves. The inventor has previously shown that, following crushing-nerve injury, GM-284 enhances nerve regeneration, acting on both the axon and the Schwann cell (data not shown). To investigate whether GM-284 also enhances sensory-nerve regeneration into skin following wounding, the inventor examined innervation of skin biopsies after 8 days of treatment with either GM-284 or vehicle. […]

epidermis of intact skin = experiment: Topical treatment of intact shaved skin, with recovery period; assay type: in vivo
Text: Either GM-284 or vehicle was applied to the dorsal skin on both sides of the animals, daily for 2 weeks. At that time, a 5-mm biopsy was taken from only one side, and all treatment was withheld. After an additional 2-week recovery period, a 5-mm biopsy was taken from the contralateral, intact side. […] 20×magnification
In order to test these effects, the inventor shaved the dorsal fur from over the hindquarters, bilaterally, and tattooed ˜5-mm circles on the skin. Either GM-284 or vehicle was applied daily, to both sides of the animals, for 2 weeks. After that time, a 5-mm biopsy was taken from only one side of each animal, and all treatment was withheld. After an additional 2-week “recovery period”, a 5-mm biopsy was taken from the intact side of each animal.

neuregulin-α = experiment: Neuregulin-α expression in keratinocytes of unwounded skin in situ; assay type: in vivo
Text: FIG. 8 illustrates that GM-284 alters neuregulin gene expression. […] As expected, unwounded, vehicle-treated keratinocytes strongly express neuregulin-α (top panel).
As expected, unwounded, vehicle-treated keratinocytes strongly expressed neuregulin-α (FIG. 8, top panel).

facial nerve = experiment: Whisker movement after unilateral facial nerve compression; assay type: in vivo; details: rats, versus control
peripheral nerves = experiment: Peripheral nerve regeneration after mechanical transection; assay type: in vivo; details: mechanical transection of peripheral nerves; earlier studies of the inventor

SMILES: CCC(C)(C)C(=O)C(=O)N1CCC[C@H]1c1nnc([C@@H]2CCCN2C(=O)C(=O)C(C)(C)CC)o1 [GM-284]
- Kd (recombinant FKBP52): 139 nM
- appearance and closure of surgical wounds (surgical wounds; daily gavage 5 mg/kg, skin and muscle entered, blinded observer): less erythemia and more rapid closure
- rate of wound healing versus controls (surgical wounds; mice treated systemically, controls vehicle or FK506): healed at approximately twice the rate as the controls
- healing of surgical wounds, only the skin entered (surgical wounds; muscle and overlying fascia left intact): same improved healing characteristics
- granulation of wound edges (5-mm skin biopsies; topical daily, D3 and D9): better granulated than the controls
- closure rate, open wound area by NIH Image (FIG. 2) (5-mm skin biopsies; topical daily, day 5): large difference in the closure rates
- open wound size versus control groups, NIH Image (FIG. 2) (5-mm skin biopsies; topical daily, day 9): approximately one-third the size of those of the control groups
- open wound size versus control groups, NIH Image (FIG. 2) (5-mm skin biopsies; topical daily, day 9, listed as GM284): approximately as completely healed as that of the two control groups
- rate of wound closure, open wound area by NIH Image (5-mm skin biopsies; topical daily, third treatment day): closed approximately twice as fast as the control groups
- wound closure versus control groups (FIG. 1) (5-mm skin biopsies; topical, once daily, day 3): showed improvement by 3 days; also recorded: significantly more closed than the control groups
- wound closure (FIG. 1) (5-mm skin biopsies; topical, once daily, day 9): virtually closed by the ninth day
- increase in rate of keratinocyte proliferation ([1]; 1 μM, after 14 days of treatment): more than 150%
- proliferative index of keratinocytes (FIG. 3) ([1]; 1 μM, after first passage and reseeding): doubling of the proliferative index
- keratinocyte growth rate at 10 μM compared with 1 μM ([1]; 10 μM): completely ablated the pro-proliferative activity
- epidermal thickness versus vehicle (FIG. 4) (epidermis): marked increase in epidermal thickness; also recorded: much thicker
- number of hair follicles or sebaceous glands ([2]; 1 μM solution): no net increase in the number of hair follicles
- hair follicle size and cellularity (FIG. 5A) ([2]; 1 μM solution, versus vehicle): large increase in the width and cellularity of the basal aspects of the hair follicles; also recorded: overall increase in hair-follicle size
- sebaceous gland size and cell number (FIG. 5A) ([2]; 1 μM solution, versus vehicle): much rounder, larger, and fuller than those of the controls; also recorded: increase in the size of sebaceous glands
- sebaceous cell volume, binned by 3000-voxel increments (FIG. 5B) ([2]; >300 cells per group, versus vehicle): marked shift to the right; also recorded: absence of cells smaller than 3000 voxels
- regeneration of myelinated (MBP-positive) fibers in injured skin (FIG. 6A) [3]: regained its pre-injury histology, with new, myelinated fibers running parallel to the epidermis
- regeneration of unmyelinated fibers into the epidermis (FIG. 6B) [3]: promotes regeneration of naked axons into the epidermis
- epidermal hypertrophy after recovery period (FIG. 7, lower) (epidermis of intact skin; 2 weeks treatment, then 2 weeks without treatment): completely reversed
- epidermal thickness of intact skin (FIG. 7, top) (epidermis of intact skin; topical daily for 2 weeks): resulted in epidermal hypertrophy
- keratinocyte neuregulin-α expression (FIG. 8) (neuregulin-α; 2 weeks of topical treatment, unwounded skin): completely downregulated neuregulin-α expression
- keratinocyte neuregulin-α expression after recovery (neuregulin-α; skin allowed to recover for 2 weeks, data not shown): keratinocyte expression of neuregulin-α was restored
- restoration of whisker movement (facial nerve): more rapidly restore whisker movement compared to control
- axonal regeneration and myelination after nerve transection (peripheral nerves): enhances axonal regeneration and induces hypermyelination
